These are literature values, as cited in patent US11723873B2, “Oral dosage form of ticagrelor and preparation method thereof” (Elite Pharmaceutical Solution Inc., priority 2021, dated 2023).

The conditions of series [1]: in vivo.
The conditions of series [2]: room temperature, crystalline powder.

Each structure is given as a SMILES string.

As to `CCCSc1nc(N[C@@H]2C[C@H]2c2ccc(F)c(F)c2)c2nnn([C@@H]3C[C@H](O)[C@@H](O)[C@H]3O)c2n1` [AR-C124910XX], in series [1], the “Tmax range of formation of the major circulating metabolite” value is 1.5 to 5.0 h and the “median time (Tmax) of formation of the major circulating metabolite” value was “approximately 2.5 hours”. On to `CCCSc1nc(N[C@@H]2C[C@H]2c2ccc(F)c(F)c2)c2nnn([C@@H]3C[C@H](OCCO)[C@@H](O)[C@H]3O)c2n1` [ticagrelor, (1S,2S,3R,5S)-3-[7-{[(1R,2S)-2-(3,4-difluorophenyl)cyclopropyl]amino}-5-(propylthio)-3H-[1,2,3]-triazolo[4,5-d]pyrimidin-3-yl]-5-(2-hydroxyethoxy)cyclopentane-1,2-diol], for which the aqueous solubility entry in series [2] is “approximately 10 μg/mL”.
